“And” between values parts separate entries of the source, which are not always exact repeats. Identical values can stand only once.
Experiments:
[1] = target: T1, full-length Nurr1 (Mus musculus, UniProt Q06219); test: Full-length Nurr1 reporter assay (p4xNL3-Luc) in SK-N-BE(2)C cells; type: cell-based; details: dose-dependent, maximal
T1 construct: Full-length mouse Nurr1cDNA was amplified by RT-PCR from pSV40Nurr1; expressed in transfected cells; host or cells: SK-N-BE(2)C human neuroblastoma cells
T1 sequence (Q06219 whole entry): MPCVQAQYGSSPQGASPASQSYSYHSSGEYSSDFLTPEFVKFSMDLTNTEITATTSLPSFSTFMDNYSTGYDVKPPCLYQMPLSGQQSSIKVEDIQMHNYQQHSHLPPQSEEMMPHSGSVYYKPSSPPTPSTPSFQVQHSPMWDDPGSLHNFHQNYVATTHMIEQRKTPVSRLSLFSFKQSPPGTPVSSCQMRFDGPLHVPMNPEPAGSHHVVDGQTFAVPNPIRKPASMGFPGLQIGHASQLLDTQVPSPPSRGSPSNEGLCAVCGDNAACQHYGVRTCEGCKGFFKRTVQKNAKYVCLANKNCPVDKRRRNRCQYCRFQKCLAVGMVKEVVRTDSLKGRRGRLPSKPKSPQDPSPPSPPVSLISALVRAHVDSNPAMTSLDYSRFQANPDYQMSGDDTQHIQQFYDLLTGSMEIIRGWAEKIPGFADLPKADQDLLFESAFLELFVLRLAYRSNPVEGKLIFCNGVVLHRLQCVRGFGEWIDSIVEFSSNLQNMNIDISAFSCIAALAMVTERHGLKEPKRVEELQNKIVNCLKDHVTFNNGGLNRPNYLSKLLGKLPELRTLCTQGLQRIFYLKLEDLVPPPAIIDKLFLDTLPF
Excerpt: (§1) The pTH2600LUC reporter construct contains the 2.6 kb upstream sequences of the rat tyrosine hydroxylase gene in front of a firefly luciferase gene in pGL3-basic vector. A Nurr1-expression plasmid, pSV40Nurr1, was kindly provided by Dr Orla M. Conneely at Baylor College of Medicine (Houston, Tex., USA). […] The VP16/SRC1 and VP16/SRC3 hybrid were constructed by inserting the transactivation domain of the VP16 protein upstream of SRC1 and SRC3, respectively. […] The recombinant proteins were purified by Ni-NTA column chromatography (Qiagen) according to the manufacturer's instruction. The integrity of all sequences was verified by DNA sequence analyses.
Human neuroblastoma SK-N-BE(2)C cells were maintained in Dulbecco's modified Eagle's medium (DMEM) supplemented with 10% fetal bovine serum. All culture media contained 100 units/ml penicillin and 100 μg/ml streptomycin. For transfection, cells were plated at 1.5×10^5 cells/well in the DMEM media without antibiotic into 24-well plates 1 day prior to transfection. Transfections were carried out by the Lipofectamine plus (Invitrogen) according to the manufacture's protocol. Total DNA amount was 0.5 μg per well with 0.1 μg of pRSV-β-gal as an internal control. […] Then equal volume of firefly luciferase substrate was added and the luciferase activity was measured using a Luminometer plate reader and normalized for beta-galactosidase activity.

[2] = target: T2, Nurr1 (Mus musculus, UniProt Q06219); test: High-throughput cell-based screen of Nurr1-dependent TH promoter activation; details: library of 960 FDA-approved drugs
T2 construct: Full-length mouse Nurr1cDNA was amplified by RT-PCR from pSV40Nurr1; expressed in transfected cells; host or cells: SK-N-BE(2)C human neuroblastoma cells
T2 sequence (Q06219 whole entry): as above
Description: The pTH2600LUC reporter construct contains the 2.6 kb upstream sequences of the rat tyrosine hydroxylase gene in front of a firefly luciferase gene in pGL3-basic vector. A Nurr1-expression plasmid, pSV40Nurr1, was kindly provided by Dr Orla M. Conneely at Baylor College of Medicine (Houston, Tex., USA). Full-length mouse Nurr1cDNA was amplified by RT-PCR from pSV40Nurr1 using forward 5′-[sequence]-3′ (SEQ ID NO: 1) and reverse 5′-[sequence]-3′ (SEQ ID NO: 2) oligonucleotides.
(§2) Human neuroblastoma SK-N-BE(2)C cells were maintained in Dulbecco's modified Eagle's medium (DMEM) supplemented with 10% fetal bovine serum. All culture media contained 100 units/ml penicillin and 100 μg/ml streptomycin. For transfection, cells were plated at 1.5×10^5 cells/well in the DMEM media without antibiotic into 24-well plates 1 day prior to transfection. Transfections were carried out by the Lipofectamine plus (Invitrogen) according to the manufacture's protocol. Total DNA amount was 0.5 μg per well with 0.1 μg of pRSV-β-gal as an internal control. 6 hours after transfection, compounds in the DMEM media with 1% charcoal-stripped fetal calf serum was added and incubated overnight. […] Then equal volume of firefly luciferase substrate was added and the luciferase activity was measured using a Luminometer plate reader and normalized for beta-galactosidase activity.

[3] = target: T3, Nurr1 LBD (Mus musculus, UniProt Q06219); test: Filter binding assay with [3H]-CQ (saturation and competition)
T3 sequence (Q06219 328-598): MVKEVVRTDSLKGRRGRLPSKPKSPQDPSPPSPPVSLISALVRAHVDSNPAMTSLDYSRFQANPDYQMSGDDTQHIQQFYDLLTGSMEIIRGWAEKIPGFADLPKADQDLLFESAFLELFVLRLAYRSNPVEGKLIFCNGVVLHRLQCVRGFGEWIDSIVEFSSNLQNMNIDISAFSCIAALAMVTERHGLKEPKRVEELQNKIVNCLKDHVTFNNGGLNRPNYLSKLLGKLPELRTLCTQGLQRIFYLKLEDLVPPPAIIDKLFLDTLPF
Excerpt: The basal level of transcriptional activity was normalized to 1. The bars represent means±SEM from three independent experiments. (FIG. 13C) Effect of Nurr1 specific siRNA on Nurr1 LBD's transactivation activity. […] (FIG. 13D) Human neuroblastoma SK-N-BE(2)C cells were transfected with the N-terminal flag-tagged SRC1 or SRC3 and the C-terminal myc-tagged full-length Nurr1. […] Cell lysates were immunoprecipitated (IP) using anti-flag antibodies and analyzed by immunoblotting (IB) using anti-myc antibodies. […] The fold induction was derived by comparing each luciferase activity to basal level obtained by non-SRC transfection. […] The concentrations (04) are shown next to the arrows. […] Specific binding was calculated as the difference of total and non-specific binding. The insert indicates Scatchard analysis of the specific binding. […] The data represent the average of triplicate from three independent experiments. All graphs, Kd, Ki, and Bmax values were generated using the non-linear regression program Prism version 5.02.
GF/C filters were wet with in binding buffer and placed on a 48-place filter manifold. […] Filters were washed with 4×100 ml binding buffer, dried, and mixed with 5 ml Scintiverse BD (Fisher) and radioactivity was determined in a Beckman LS6000SC liquid scintillation counter. […] The mixture was applied to GF/C filter and filter was washed and counted as described above.

[4] = test system: Nurr1 recruitment to TH promoter NL1 and NL3; test: Chromatin immunoprecipitation in PC12 cells; type: cell-based, rat; details: 20 μM AQ or 75 μM CQ for 15 hrs
Description: Error bars represent standard deviations.
Cells were washed with PBS, fixed with 1% formaldehyde, lysed, and sonicated according to the manufacturer's instruction (Active Motif). 25 μg of soluble chromatin DNA were co-immunoprecipitated 1 μg of Nurr1 specific antibody (E-20, Santa Cruz) or control antibody (rabbit IgG, santa Cruz). […] Values are shown as fold induction compared to mock treated control cells.

[5] = test system: primary cultures of rat mesencephalic DA neurons; test: 6-OHDA-induced death in primary mesencephalic DA neurons (TH+ count, [3H]DA uptake); type: cell-based; details: number of TH+ neurons and DA uptake; 20 μM 6-OHDA for 24 hr
Description: Control DA neurons were treated with the above medium in the presence of a dopamine uptake blocker, 10 μM mazindol (Sigma). Cells were then washed with ice-cold Krebs Ringers solution and lysed with 0.5 M NaOH. Radioactivity was quantified by a liquid scintillation counter (Beckman, Fullerton, Calif.).
To prepare primary cultures of DA neurons, the ventral mesencephalon was removed from 14 day gestation Sprague Dawley rat embryo (Charles River, Cambridge, Mass.). Tissues were incubated with 0.01% trypsin in MEM (MEM, Invitrogen) for 10 min at 37° C. and triturated using a constricted Pasteur pipette. DA neurons were plated at 1.0×10^5 cells per 9 mm diameter glass cover slip precoated with 100 μg/ml poly-D-lysine (Sigma, St. Louis, Mo.) and 4 μg/ml laminin (Invitrogen). DA neurons were maintained at 37° C. in a humidified 5% CO2 atmosphere in minimum essential medium supplemented with 10% FBS (Hyclone), 2 mM glutamine and 6.0 g/l glucose. […]
Cells were fixed in 4% paraformaldehyde (PFA) for 20 min, washed and then incubated with blocking buffer [PBS, 10% goat serum (Invitrogen), 0.3% Triton X-100 (Sigma)] for 1 hour. […] Following washes with PBS, appropriate fluorescence-tagged secondary antibodies (Jackson Immunoresearch Laboratories, West Grove, Pa.) were used for visualization. […]

[6] = test system: MPTP-treated monkeys; details: previous study; cited from earlier work
[7] = test system: LBDs of Nur77, GR, LXR, RXR, PPARα, PPARγ; test: Target selectivity: GAL4-LBD reporter assays of other nuclear receptors; type: cell-based; details: FIG. 19; 30 μM AQ
Description: The positive reactivity of these NR constructs was confirmed by the known activators (2 nM dexamethasone, 20 nM retinoic acid, 2 μM GW3965, 50 nM GW7647, and 5 nM GW1929 for GR, RXR, LXR, PPARα, and PPARγ, respectively). The basal level of transcriptional activity was normalized to 1. Bars represent means±SEM from three independent experiments.
as §2

[8] = test system: PC12 cells; test: 6-OHDA toxicity in PC12 cells (MTT reduction assay); type: cell-based, rat
Description: Cell viabilities were determined by the conventional MTT reduction assay. After incubation for indicated times, cells were treated with the MTT solution (final concentration, 1 mg/ml, Sigma) for 1 h. Formazan grains formed in intact cells were solubilized with MTT Solubilization. Solution containing 10% Triton X-100 plus 0.1 N HCl in anhydrous isopropanol for 24 h and then absorbance at 570 nm was measured with a microplate reader (Molecular Devices, Menlo Park, Calif.).

[9] = target: T3, Nurr1 LBD; test: Nurr1 LBD GAL4 reporter assay (pSVGAL(DBD)-N(LBD), p8xGAL-Luc) in SK-N-BE(2)C cells; type: cell-based
Excerpt: as §1
Human neuroblastoma SK-N-BE(2)C cells were maintained in Dulbecco's modified Eagle's medium (DMEM) supplemented with 10% fetal bovine serum. All culture media contained 100 units/ml penicillin and 100 μg/ml streptomycin. For transfection, cells were plated at 1.5×10^5 cells/well in the DMEM media without antibiotic into 24-well plates 1 day prior to transfection. Transfections were carried out by the Lipofectamine plus (Invitrogen) according to the manufacture's protocol. Total DNA amount was 0.5 μg per well with 0.1 μg of pRSV-β-gal as an internal control. 6 hours after transfection, compounds in the DMEM media with 1% charcoal-stripped fetal calf serum was added and incubated overnight. Cells from each well were lysed with 100 μl of lysis buffer, which contains 25 mM Tris-phosphate (pH 7.8), 2 mM DTT, 2 mM CDTA (1,2-diaminocyclohexane-N,N,N′,N′-tetraacetic acid), 10% glycerol, and 1% Triton X-100. Then equal volume of firefly luciferase substrate was added and the luciferase activity was measured using a Luminometer plate reader and normalized for beta-galactosidase activity.

[10] = test system: aphakia (ak/ak) mice; test: Behavioral studies in ak/ak mice (Pole, Challenging Beam, Cylinder, Rotarod) and SN histology; type: in vivo, mouse; details: L-DOPA 8 mg/kg i.p. once per day
Description: Either 20 mg/kg of AQ (AQ group) or the saline (Saline group) was intraperitoneally injected (I.P.) twice per day for two weeks. 8 mg/kg of L-DOPA (L-DOPA group) in 0.5% DMSO was injected (I.P.) once per day for two weeks. The L-DOPA group was given 12.5 mg/kg benserazide 20 min prior to administration of L-DOPA.
Each ak mouse was randomly assigned into one of three experiment groups, (1) saline group (negative control; n=8), (2) L-DOPA group (positive control; n=8), (3) AQ group (n=10). Each WT or rdl mouse was randomly divided into two groups, (1) saline group (n=8) and (2) AQ group (n=10). Pole Test, Challenging Beam Traversal Test, and Cylinder Test were performed at two time points, immediately and one month after two weeks of either AQ or saline injection. Each mouse ran each task twice. Rota rod test was performed immediately after two weeks of either drug or saline injection. Acclimation and data recording process were identical to the rat study described above. All tasks were performed as described previously^11 and the short description of each task is as follows.
A vertical wooden pole 50 cm in length and 1 cm in diameter was used for Pole Test. Each mouse was gently placed head upwards on top of the pole which is placed on each animal's home cage. Each mouse ran tree trials per session during 2 training sessions. On the testing day, mice ran three trials. Two parameters (the meantime to orient downward and the total travel mean time) were used for the statistical analysis.
A 1 m length of plastic beam was used for Challenging Beam Traversal Test. The starting width of the beam was 3.5 cm and it gradually narrowed in 1 c increments to 0.5 cm at the other end site of the beam. Animals were trained to walk from the wide end to the other end for 2 sessions, three trials per session before testing. A mesh grid was removed during the training period. On the testing day, a mesh grid (1 cm square) covering the beam surface was equipped leaving a […] room between the grid and the beam surface. On the testing day, mice ran three trials. Two parameters (the mean number of steps taken by each animal and the mean time to traverse across three trials) were collected and used for statistical analysis.
A small transparent cylinder (height, 15.5 cm; diameter, 12.7 cm) was used to evaluate somatosensory motor function. Mice were placed in the cylinder and their rears were counted for 5 minutes. The forelimb touching the Plexiglas wall (a vertical movement) is defined as a full rear. The mean number of forelimb use was calculated for the statistical analysis. […]
The Rota rod equipment (Med-Associates, Inc, Albans, Vt., USA) was used to measure motor coordination. […] The mean latency to fall off from the Rota rod was measured for the statistical analysis. […]

Q: Which results are given for `O=C(OCC(O)CO)c1ccccc1Nc1ccnc2cc(Cl)ccc12` (stereo not shown) [glafenine]?
A: luciferase reporter activity, fold activation [1]: approximately 1.6 fold; screen outcome [2]: hit compounds

Q: For `CCN(CC)CCCC(C)Nc1ccnc2cc(Cl)ccc12` (stereo not shown) [[^3H]-CQ], which Kd ([3]; radioligand saturation binding, read-out: dissociation constant, saturable binding to Nurr1-LBD) is on record?
A: Its Kd is 0.27 µM.

Q: What does the source list for `CCN(CC)CCCC(C)Nc1ccnc2cc(Cl)ccc12` (stereo not shown) [CQ, chloroquine]?
A: Nurr1 recruitment to NL1 and NL3 sites of the TH promoter [4]: recruited to both NL1 and NL3 sites; 6-OHDA-induced death in primary DA neurons [5]: significantly inhibit; MPTP-induced parkinsonian motor abnormalities [6]: protected them from MPTP-induced parkinsonian motor abnormalities; transcriptional activity of other nuclear receptors [7]: unable to induce; neuroprotective effect in PC12 cells [8]: neuroprotective effect; EC50 ([9]; read-out: EC50 Nurr1 LBD-based reporter activity): ~60 µM and ~50 µM; Ki ([3]; 500 nM [3H]-CQ): 0.088 µM

Q: Which “rearing activity in Cylinder test” value [10] does the source give for `N[C@@H](Cc1ccc(O)c(O)c1)C(=O)O` [L-DOPA] here?
A: Its value is “dramatically induced rearing activity”.

Q: Which results are given for `COc1cc(NC(C)CCCN)c2ncccc2c1` (stereo not shown) [primaquine]?
A: transactivation of Nurr1 LBD / Nurr1 transcriptional function ([9]; wide range of concentrations, FIG. 18): couldn't enhance the Nurr1 transcriptional function; Ki, competition with [3H]-CQ for binding to Nurr1-LBD ([3]; 500 nM [3H]-CQ): unable to compete

— patent US11026943B2, “Aminoquinoline derivatives and uses thereof” (UNIVERSITY OF DELHI, priority 2012, dated 2021)
